Target: T1, human GPBAR1 receptor (Homo sapiens, UniProt Q8TDU6)
T1 construct: expressed in transfected cells
T1 sequence (Q8TDU6 1-330): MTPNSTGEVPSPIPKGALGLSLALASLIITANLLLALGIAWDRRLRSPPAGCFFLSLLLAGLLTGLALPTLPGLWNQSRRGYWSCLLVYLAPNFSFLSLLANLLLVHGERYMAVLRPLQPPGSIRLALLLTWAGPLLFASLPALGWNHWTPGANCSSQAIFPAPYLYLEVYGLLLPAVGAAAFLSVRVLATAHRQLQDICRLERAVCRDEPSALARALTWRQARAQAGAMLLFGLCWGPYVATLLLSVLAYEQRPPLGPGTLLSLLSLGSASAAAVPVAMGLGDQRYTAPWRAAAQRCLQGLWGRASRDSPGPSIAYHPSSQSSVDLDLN
Experiment: functional cAMP assay in CHO-dhfr(minus) cells expressing human GPBAR1 receptors
Assay type: cell-based
Conditions: cAMP increase (TR-FRET) in CHO-dhfr(minus) cells expressing human GPBAR1; compounds incubated 30 min at 30° C.
Description: The final clone was verified by DNA sequence analysis. The plasmid was transfected into CHO cells deficient in dihydrofolate reductase activity (CHO-dhfr-) using Lipofectamine plus (Invitrogen). Clones were isolated in limited dilution conditions and identified by activities in the cAMP assay using lithocholic acid as agonist.
The growth medium was exchanged with Krebs Ringer Bicarbonate buffer with 1 mM IBMX and incubated at 30° C. for 30 mM. Compounds were added to a final assay volume of 100 μl and incubated for 30 min at 30° C. […] The time-resolved energy transfer is measured by a TRF reader (Evotec Technologies GmbH, Hamburg Germany), equipped with a ND:YAG laser as excitation source. The plate is measured twice with the excitation at 355 nm and at the emission with a delay of 100 ns and a gate of 100 ns, total exposure time 10s at 730 (bandwith 30 nm) or 645 nm (bandwith 75 nm), respectively.
EC50 values were determined using Activity Base analysis (ID Business Solution, Limited). […] Specificity for GPBAR1 was tested in non-transfected CHO cells in the same assay as above.

Row | EC50 | SMILES
1 | 396 nM | O=C(c1cccnc1Oc1cccc(C(F)(F)F)c1)N1CCCc2ccccc21 [Example 1, (3,4-Dihydro-2H-quinolin-1-yl)-[2-(3-trifluoromethyl-phenoxy)-pyridin-3-yl]-methanone]
2 | 989 nM | O=C(c1cccnc1Oc1ccccc1Cl)N1CCCc2ccccc21 [Example 2, [2-(2-Chloro-phenoxy)-pyridin-3-yl]-(3,4-dihydro-2H-quinolin-1-yl)-methanone]
3 | 192 nM | O=C(c1cccnc1Oc1cccc(Cl)c1)N1CCCc2ccccc21 [Example 3, [2-(3-Chloro-phenoxy)-pyridin-3-yl]-(3,4-dihydro-2H-quinolin-1-yl)-methanone]
4 | 1400 nM | Cc1ccc2c(c1)CCCN2C(=O)c1cccnc1Oc1cccc(C(F)(F)F)c1 [Example 4, (6-Methyl-3,4-dihydro-2H-quinolin-1-yl)-[2-(3-trifluoromethyl-phenoxy)-pyridin-3-yl]-methanone]
5 | 649 nM | Cc1ccc2c(c1)CCCN2C(=O)c1cccnc1Oc1cccc(Cl)c1 [Example 5, [2-(3-Chloro-phenoxy)-pyridin-3-yl]-(6-methyl-3,4-dihydro-2H-quinolin-1-yl)-methanone]
6 | 996 nM | O=C(c1cccnc1Oc1ccc(Cl)c(Cl)c1)N1CCCc2ccccc21 [Example 6, [2-(3,4-Dichloro-phenoxy)-pyridin-3-yl]-(3,4-dihydro-2H-quinolin-1-yl)-methanone]
7 | 575 nM | N#Cc1cccc(Oc2ncccc2C(=O)N2CCCc3ccccc32)c1 [Example 7, 3-[3-(3,4-Dihydro-2H-quinoline-1-carbonyl)-pyridin-2-yloxy]-benzonitrile]
8 | 644 nM | Cc1cccc(Oc2ncccc2C(=O)N2CCCc3ccccc32)c1 [Example 8, (3,4-Dihydro-2H-quinolin-1-yl)-(2-m-tolyloxy-pyridin-3-yl)-methanone]
9 | 1010 nM | Cc1ccc(Oc2ncccc2C(=O)N2CCCc3ccccc32)cc1Cl [Example 9, [2-(3-Chloro-4-methyl-phenoxy)-pyridin-3-yl]-(3,4-dihydro-2H-quinolin-1-yl)-methanone]
10 | 53 nM | O=C(c1cccnc1Oc1ccc(F)c(Cl)c1)N1CCCc2ccccc21 [Example 10, [2-(3-Chloro-4-fluoro-phenoxy)-pyridin-3-yl]-(3,4-dihydro-2H-quinolin-1-yl)-methanone]
11 | 153 nM | Cc1ccc(Cl)cc1Oc1ncccc1C(=O)N1CCCc2ccccc21 [Example 11, [2-(5-Chloro-2-methyl-phenoxy)-pyridin-3-yl]-(3,4-dihydro-2H-quinolin-1-yl)-methanone]
12 | 1150 nM | O=C(c1cccnc1Oc1cccc(Cl)c1Cl)N1CCCc2ccccc21 [Example 12, [2-(2,3-Dichloro-phenoxy)-pyridin-3-yl]-(3,4-dihydro-2H-quinolin-1-yl)-methanone]
13 | 149 nM | O=C(c1cccnc1Oc1cc(F)cc(Cl)c1)N1CCCc2ccccc21 [Example 13, [2-(3-Chloro-5-fluoro-phenoxy)-pyridin-3-yl]-(3,4-dihydro-2H-quinolin-1-yl)-methanone]
14 | 236 nM | O=C(c1cccnc1Oc1cc(Cl)c(Cl)cc1Cl)N1CCCc2ccccc21 [Example 14, (3,4-Dihydro-2H-quinolin-1-yl)-[2-(2,4,5-trichloro-phenoxy)-pyridin-3-yl]-methanone]
15 | 1690 nM | O=C(c1ccccc1)c1cccc(Oc2ncccc2C(=O)N2CCCc3ccccc32)c1 [Example 15, [2-(3-Benzoyl-phenoxy)-pyridin-3-yl]-(3,4-dihydro-2H-quinolin-1-yl)-methanone]
16 | 1920 nM | O=C(c1cccnc1Oc1cccc(OC(F)(F)F)c1)N1CCCc2ccccc21 [Example 16, (3,4-Dihydro-2H-quinolin-1-yl)-[2-(3-trifluoromethoxy-phenoxy)-pyridin-3-yl]-methanone]
17 | 176 nM | O=C(c1cccnc1Oc1cc(Cl)cc(Cl)c1)N1CCCc2ccccc21 [Example 17, [2-(3,5-Dichloro-phenoxy)-pyridin-3-yl]-(3,4-dihydro-2H-quinolin-1-yl)-methanone]
18 | 322 nM | O=C(c1cccnc1Oc1cccc(F)c1)N1CCCc2ccccc21 [Example 18, (3,4-Dihydro-2H-quinolin-1-yl)-[2-(3-fluoro-phenoxy)-pyridin-3-yl]-methanone]
19 | 625 nM | CC(C)c1cccc(Oc2ncccc2C(=O)N2CCCc3ccccc32)c1 [Example 19, (3,4-Dihydro-2H-quinolin-1-yl)-[2-(3-isopropyl-phenoxy)-pyridin-3-yl]-methanone]

Row | EC50 | SMILES
20 | 473 nM | CCc1cccc(Oc2ncccc2C(=O)N2CCCc3ccccc32)c1 [Example 20, (3,4-Dihydro-2H-quinolin-1-yl)-[2-(3-ethyl-phenoxy)-pyridin-3-yl]-methanone]
21 | 345 nM | O=C(c1cccnc1Oc1cccc(I)c1)N1CCCc2ccccc21 [Example 21, (3,4-Dihydro-2H-quinolin-1-yl)-[2-(3-iodo-phenoxy)-pyridin-3-yl]-methanone]
22 | 651 nM | O=C(c1cccnc1Oc1cc(C(F)(F)F)cc(Cl)c1F)N1CCCc2ccccc21 [Example 22, [2-(3-Chloro-2-fluoro-5-trifluoromethyl-phenoxy)-pyridin-3-yl]-(3,4-dihydro-2H-quinolin-1-yl)-methanone]
23 | 232 nM | O=C(c1cccnc1Oc1cccc(Br)c1)N1CCCc2ccccc21 [Example 23, [2-(3-Bromo-phenoxy)-pyridin-3-yl]-(3,4-dihydro-2H-quinolin-1-yl)-methanone]
24 | 128 nM | O=C(c1cc(F)cnc1Oc1cccc(Cl)c1)N1CCCc2ccccc21 [Example 25, [2-(3-Chloro-phenoxy)-5-fluoro-pyridin-3-yl]-(3,4-dihydro-2H-quinolin-1-yl)-methanone]
25 | 106 nM | O=C(c1cc(F)cnc1Oc1cc(F)ccc1F)N1CCCc2ccccc21 [Example 26, [2-(2,5-Difluoro-phenoxy)-5-fluoro-pyridin-3-yl]-(3,4-dihydro-2H-quinolin-1-yl)-methanone]
26 | 145 nM | O=C(c1cc(Cl)cnc1Oc1cc(Cl)ccc1Cl)N1CCCc2ccccc21 [Example 27, [5-Chloro-2-(2,5-dichloro-phenoxy)-pyridin-3-yl]-(3,4-dihydro-2H-quinolin-1-yl)-methanone]
27 | 1980 nM | O=C(c1cc(Cl)cnc1Oc1cc(F)ccc1F)N1CCCc2ccccc21 [Example 28, [5-Chloro-2-(2,5-difluoro-phenoxy)-pyridin-3-yl]-(3,4-dihydro-2H-quinolin-1-yl)-methanone]
28 | 144 nM | O=C(c1ccc(C(F)(F)F)nc1Oc1cc(Cl)ccc1Cl)N1CCCc2ccccc21 [Example 29, [2-(2,5-Dichloro-phenoxy)-6-trifluoromethyl-pyridin-3-yl]-(3,4-dihydro-2H-quinolin-1-yl)-methanone]
29 | 436 nM | O=C(c1cccnc1Oc1cccc(Cl)c1)N1CCOc2ccccc21 [Example 30, [2-(3-Chloro-phenoxy)-pyridin-3-yl]-(2,3-dihydro-benzo[1,4]oxazin-4-yl)-methanone]
30 | 138 nM | Cc1ccc2c(c1)CCCN2C(=O)c1cccnc1Oc1cc(Cl)ccc1Cl [Example 31, [2-(2,5-Dichloro-phenoxy)-pyridin-3-yl]-(6-methyl-3,4-dihydro-2H-quinolin-1-yl)-methanone]
31 | 70 nM | CCN(C(=O)c1cccnc1Oc1cc(Cl)ccc1Cl)c1ccccc1 [Example 32, 2-(2,5-Dichloro-phenoxy)-N-ethyl-N-phenyl-nicotinamide]
32 | 203 nM | O=C(c1cccnc1Oc1cc(Cl)ccc1Cl)N1CCCc2ccc(Cl)cc21 [Example 33, (7-Chloro-3,4-dihydro-2H-quinolin-1-yl)-[2-(2,5-dichloro-phenoxy)-pyridin-3-yl]-methanone]
33 | 58 nM | O=C(c1cccnc1Oc1cc(Cl)ccc1Cl)N1CCCc2ccc(F)cc21 [Example 34, [2-(2,5-Dichloro-phenoxy)-pyridin-3-yl]-(7-fluoro-3,4-dihydro-2H-quinolin-1-yl)-methanone]
34 | 283 nM | CN(C(=O)c1cccnc1Oc1cc(Cl)ccc1Cl)c1ccccc1 [Example 35, 2-(2,5-Dichloro-phenoxy)-N-methyl-N-phenyl-nicotinamide]
35 | 135 nM | O=C(c1cccnc1Oc1cc(Cl)ccc1Cl)N1CCOc2ccccc21 [Example 36, [2-(2,5-Dichloro-phenoxy)-pyridin-3-yl]-(2,3-dihydro-benzo[1,4]oxazin-4-yl)-methanone]
36 | 28 nM | O=C(c1cccnc1Oc1cc(Cl)ccc1Cl)N1CCCc2cc(F)ccc21 [Example 37, [2-(2,5-Dichloro-phenoxy)-pyridin-3-yl]-(6-fluoro-3,4-dihydro-2H-quinolin-1-yl)-methanone]
37 | 57 nM | O=C(c1cccnc1Oc1cc(Cl)ccc1Cl)N1CCCc2cc(F)c(F)cc21 [Example 38, [2-(2,5-Dichloro-phenoxy)-pyridin-3-yl]-(6,7-difluoro-3,4-dihydro-2H-quinolin-1-yl)-methanone]
38 | 29 nM | O=C(c1cccnc1Oc1cc(Cl)ccc1Cl)N1CCSc2ccccc21 [Example 39, [2-(2,5-Dichloro-phenoxy)-pyridin-3-yl]-(2,3-dihydro-benzo[1,4]thiazin-4-yl)-methanone]
